Experimental data as given in patent publication US20190225643A1, “NOVEL NUCLEOSIDE ANALOGS AND USE THEREOF IN THERAPEUTIC TREATMENT” (CORNELL UNIVERSITY, priority 2016, published 2019).

How the values were obtained:
[1] = system: CAG-luc multiple myeloma xenograft; experiment: Disseminated multiple myeloma xenograft model; type: in vivo, mouse
Protocol: For the disseminated multiple myeloma xenograft model, CAG cells were kindly provided by Dr. Malcolm Moore lab at MSKCC. 1×10^7 of CAG cells stably expressing the HSV-TK-eGFP-luciferase fusion protein were injected intravenously into NOD/SCID (NOD/LTSZPrko/J, the Jackson Laboratory Stock# 001303). Eight days after tumor induction, mice were randomized into control and treated cohorts and treated intraperitoneally with either PBS 0.05% tween 80 (vehicle) or 200 mg/kg of 6-ETI daily for 9 days. Tumor mass or bioluminescence (photons/s/cm^2/steradian) was evaluated by imaging the mice using IVIS Imaging system. Statistical analysis was done using a two-tailed, unpaired Student's t-test using GraphPad prism.

[2] = 200 mg/kg for 9 days; cited from earlier work
[3] = system: KSHV+ PEL cell lines; experiment: CellTiter-Glo viability assay, KSHV+ cell line panel; type: cell-based, human
Protocol: (§1) Cell viability assays were performed by plating log-phase cells in RPMI complete media with 20% FBS at 1*10^5 cells/mL, with concentrations of 6-ETI or phospho-6-ETI ranging from 0.1 nM to 100 μM. ATP content at 24, 48 and 72 hours post-treatment was measured by the CellTiter-Glo kit (Promega, Madison, Wis.), or by Trypan blue assay as indicated. The LC50 for 6-ETI in each cell line was determined using online EC50 software at changbioscience.com or using GraphPad Prism to determine the LC50 for 6-ETI, phospho-6-ETI and nucleoside analogs in MM cell lines and primary MM patient samples.
KSHV+ primary effusion lymphoma (PEL) cell lines (BC1, BC2, BC3, BC5, BCBL1, BCP1), EBV+ lymphoblastoid cell line LCL9001, EBI+ diffuse large B-cell lymphomas (DLBCL) with immunoblastic features (IBL1, IBL4), and EBV+ effusion DLBCL BCKN1 were cultured in RPMI-1640 medium (Invitrogen) supplemented with 50 μg/mL Gentamicin (Sigma-Aldrich) and 10% or 20% heat-inactivated fetal bovine serum, respectively. Uninfected DLBCL cell lines (Ly2, Ly7) were cultured in IMDM (Invitrogen) supplemented with 50 μg/mL Gentamicin and 10% FBS. Multiple myeloma (MM) cell lines U266 and MM1S were cultured in RPMI supplemented with 15%FBS and 50 μg/mL Gentamicin, while JJN3 was cultured in 40% IMDM/40% DMEM plus 20% FBS supplemented with 50 μg/mL Gentamicin. Hodgkin's lymphoma (L428, L1236) and Burkitt's lymphoma cell lines (BJAB, Namalwa)were maintained in RPMI-1640 supplemented with Gentamicin and 10% FBS. All of the PEL cell lines and IBL1 were established in our laboratory from lymphomatous effusions except BCBL1, which was obtained from the AIDS and Cancer Specimen Bank. Burkitt lymphoma cell lines Namalwa and BJAB as well as the multiple myeloma cell line U266 were obtained from the American Type Culture Collection (ATCC). JJN3 cell line and Hodgkin cell lines (L428, L1236) were obtained from DSMZ. DLBCL cell lines LY2 and LY7 were provided by Riccardo Dana-Rivera (Columbia University), MM1S cell line was provided by Dr. Giorgio Inghiraini lab at Weill Cornell Medicine. […]

[4] = system: KSHV- cell lines; experiment: CellTiter-Glo viability assay, KSHV- cell line panel; type: cell-based; details: Homo sapiens, 48 h, read-out: LC50
Protocol: as §1
KSHV+ primary effusion lymphoma (PEL) cell lines (BC1, BC2, BC3, BC5, BCBL1, BCP1), EBV+ lymphoblastoid cell line LCL9001, EBI+ diffuse large B-cell lymphomas (DLBCL) with immunoblastic features (IBL1, IBL4), and EBV+ effusion DLBCL BCKN1 were cultured in RPMI-1640 medium (Invitrogen) supplemented with 50 μg/mL Gentamicin (Sigma-Aldrich) and 10% or 20% heat-inactivated fetal bovine serum, respectively. Uninfected DLBCL cell lines (Ly2, Ly7) were cultured in IMDM (Invitrogen) supplemented with 50 μg/mL Gentamicin and 10% FBS. Multiple myeloma (MM) cell lines U266 and MM1S were cultured in RPMI supplemented with 15%FBS and 50 μg/mL Gentamicin, while JJN3 was cultured in 40% IMDM/40% DMEM plus 20% FBS supplemented with 50 μg/mL Gentamicin. […]

[5] = system: 6-ETI-resistant BC3 clones and xenograft cell lines 2-3 low and 3-5 low; experiment: Viability assay in 6-ETI-resistant BC3-derived cell lines; type: cell-based
Protocol: To generate 6-ETI resistant clones, BC3 cells were plated in RPMI-1640 with 50 μg/mL Gentamicin and 20% FBS under 6-ETI selection in multiple 96-well plates at 1*10^5 cells/mL. Selection was begun at 15 nM, 30 nM, or 60 nM 6-ETI. Cells were split every three days, with the dose of 6-ETI doubled at least 1×/week. Selection continued until a few clonal populations remained, after which the clones were expanded into fresh plates under selection with 10 μM 6-ETI. Clones retrieved were designated NSCE-1, NSCE-2, NSCE-3, NSCE-4, NSCE-5, NSCE-6, NSCE-7, NSCE-8, in chronological order of selection from the original plates.
The ascites from these mice were harvested ex vivo, and following Ficoll extraction, placed in culture in RPMI-1640 with 10% FBS.

[6] = system: DNA synthesis in U266 cells; experiment: Click-iT EdU DNA synthesis assay, MM cells; type: cell-based, human; details: 24 hrs
Protocol: (§2) BC3 and U266 cells were seeded at a density of 0.5 million cells/ml and treated with DMSO only, 1 μM or 1.0 μM 6-ETI for BC3 cells and 0.5 μM 6-ETI for U266 cells for 24 hrs. At 24 hrs post 6-ETI treatment, 0.5 million cells of each of the treated conditions were labeled with 10 μM of EdU for 2 hours then fixed for 30 min using 2% paraformaldehyde supplemented with 0.3M sucrose. Cells were then washed in PBS and perineabilized with 0.2% saponin, PBS with 1% BSA and 0.3M sucrose for 20 min at room temperature. During this incubation time, a click-iT cocktail mix containing, click iT reaction buffer, CuSO4, alexafluor488 and click iT reaction buffer additive was prepared according to the manufacturer's instructions. Cells were washed in PBS after permeabilization and the click-iT cocktail mix was added for 30 min at room temperature in the absence of light. To visualize DNA, cells were counterstained with Hoechst (1:1000) for another 30 min then washed and resuspended in PBS with 1% BSA. 20 μl of the resuspended cells were combined with 20 μl of mounting media Fluoromount-G (Southern biotech) and cells were mounted on Ibidi μ-slides. Cells were imaged using DeltaVision image restoration microscope (Rockefeller center).

[7] = system: DNA synthesis in BC3 cells; experiment: Click-iT EdU DNA synthesis assay, BC3; type: cell-based, human; details: BC3, 1 μM, 24 hours
Protocol: as §2

[8] = system: IBL1 cells; experiment: Trypan-blue exclusion viability, non-PEL cell line; type: cell-based; details: Homo sapiens; selected non-PEL cell line (IBL1), 48 hours; read-out: LC50 by Trypan-blue exclusion
Protocol: as §1

## CCSc1ncnc2c1ncn2[C@@H]1O[C@H](CO)C(O)[C@@H]1O (stereo partly shown) [Compound 6-ETI, 6-ethylthioinosine]
[1]; 200 mg/kg/day i.p. for 9 days
  tumor burden (bioluminescent signal): significant reduction in tumor burden
  weight loss: without any weight loss
[1]; 200 mg/kg/day, P<0.005
  overall survival: significantly prolonged
[2]
  reported toxicities: no reported toxicities
[3]; Homo sapiens, 48 h, read-out: LC50
  CC50: 0.03 to 0.435 µM
[3]; KSHV- versus KSHV+ cell lines
  average fold-difference in sensitivity: ~275 X
[3]; PEL cell lines
  LC95: ~1 µM
[4]
  CC50: 10 to 80 µM
[5]; Homo sapiens, xenograft cell lines 2-3 low and 3-5 low after selection with 10 μM 6-ETI, read-out: LC50 (the source's name)
  CC50: > 100 µM
[5]; clones NSCE-1, -2, -3, -6, -7, -8
  resistance of selected clones: fully resistant
[6]
  DNA synthesis (EdU incorporation): suppressed DNA synthesis
[7]
  DNA synthesis (EdU incorporation): complete inhibition of DNA synthesis
[8]
  CC50: 134 µM
